Experiment [1] concerns dendritic cells / CD4+ T-cells. Conditions: cited from earlier work.
Experiment [2] relates to experimental autoimmune encefalomyelitis (EAE). Conditions: administration to EAE mice; for MR inhibitors also in mice that did not receive aldosterone; cited from earlier work.
The test system of experiment [3] is CD8+ or CD4+ T-lymphocytes co-cultured with antigen-presenting cells (dendritic cells). Description: T-lymphocyte activation by ovalbumin-pulsed antigen-presenting cells, IL-2 ELISA. The format is cell-based, transgenic mice. As to conditions: 5 ug/ml during co-culture, 24 hrs, antigen-presenting cells pulsed with 10 ug/ml ovalbumin (FIG. 2). The procedure: FIG. 2. Plots showing the effect of a composition comprising spironolactone in the inhibition of activation of T-lymphocytes through antigen-presenting cells. Antigen-presenting cells (dendritic cells) were pulsed with ovalbumin, washed and co-cultured with CD8+ or CD4+T-lymphocytes obtained from transgenic mice whose TCR specifically recognizes an ovalbumin derived peptide charged on class I or II MHC respectively. At the same time, the culture was treated with spironolactone (-□-) eplerenone (-▾-) or not treated (control -▴-) and after 24 hours, the supernatant was withdrawn and the presence of interleukin-2 (IL-2) assayed using ELISA. *p<0.05 one-way ANOVA.
Antigen-presenting cells were pulsed with 10 ug/ml of ovalbumin (OVA) protein over 24 hrs, washed and then co-cultured with CD8+ or CD4+T-lymphocytes obtained from transgenic mice whose TCR recognizes specifically a ovalbumin derived peptide charged in MHC class I or II, respectively. […] After 24 hrs, the supernatant was withdrawn and IL-2 secretion, a cytokine secreted by activated T-lymphocytes, was assayed using ELISA assay. In this specific immunological test, it is expected the activation of said T-lymphocytes and, therefore, an increase in IL-2 secretion.

The test system of experiment [4] is purified CD8+ T-lymphocytes. Description: T-lymphocyte activation by plate-bound anti-CD3ε independent of antigen-presenting cells, IL-2 ELISA. Conditions: 5 ug/ml, 24 hrs, plate activated with different concentrations of anti-CD3ε (FIG. 3). The class given is cell-based. The procedure:
FIG. 3: Plots showing the effect of a composition comprising spironolactone or epleronone in the activation of T-lymphocytes independent from antigen-presenting dendritic cells. An ELISA plate was activated with different concentrations of anti-CD3ε overnight, and then purified CD8+ T-lymphocytes were added and treated for 24 hrs with spironolactone (-□-), eplerenone (-▾-) o not treated (control -▴-). When the time was completed the supernatant was extracted and the IL-2 levels were determined using ELISA.
The following experiment was made in order to determine if spironolactone acts directly on T-lymphocytes or the effect is on the function of antigen-presenting cells. An ELISA plate was activated with different concentrations of anti-CD3ε overnight, and then, purified CD8+T-lymphocytes were added and treated with either spironolactone or epleronone (5 ug/ml) during 24 hrs. After that period, the supernatant was withdrawn and IL-2 levels were determined using ELISA. This assay is based on that T-lymphocytes, beside expressing TCR, express a protein denominated CD3, which transduces the activating signal, generated by the interaction of TCR with the antigenic peptide bound to the MHC of the antigen-presenting cell, to the interior of the T-lymphocyte.

Experiment [5] deals with systemic lupus erythematosus-like disease in FcγII receptor knockout mice. As to the kind of experiment: Effect of spironolactone in systemic lupus erythematosus mice. The class given is in vivo. Conditions: pellets supplemented with 1.8 mg daily, oral, compared to regularly fed mice (FIG. 5).
For experiment [6], the system named is immune synapsis between T-lymphocytes and antigen-presenting cells. As to the kind of experiment: Immune synapsis between antigen-presenting cells and T-lymphocytes, Golgi polarization by confocal fluorescence microscopy. The class given is cell-based. Conditions: 5 ug/ml in culture medium, co-culture 2 hrs (FIG. 4B). An excerpt:
FIG. 4: Photographs using confocal fluorescence microscopy, showing immunological synapsis between antigen-presenting dendritic cells and T-lymphocyte. T-lymphocytes were dyed with BODIPY FL C5-Ceramide, which is directed to the Golgi apparatus, while antigen-presenting cells were dyed with CMTMR-Orange and co-cultured without spironolactone (FIG. 4A) or in the presence of spironolactone (FIG. 4B) during 2 hrs, afterwards, the cells were observed under a confocal fluorescence microscope.
It has been determined that an efficient activation of T-lymphocytes requires an stable interaction between the antigen-presenting cell and the T-lymphocyte, which is known as “immune synapsis”. A stable immune synapsis is translated in a polarization of the Golgi apparatus, an organelle in charge of protein transport, of the T-lymphocyte towards the contacting site with the antigen-presenting cell. In this way, it is possible to observe an efficient immune synapsis checking if a polarization from Golgi apparatus towards the contacting site with the antigen-presenting cell exists or not. […] Afterwards, both cell groups were contacted and the interaction between cells using a confocal fluorescence microscope was observed. […]

Experiment [7] deals with experimental autoimmune encefalomyelitis (EAE) induced with MOG 35-55 peptide. Description: Effect of a spironolactone composition in EAE mice (clinical score). The format is in vivo, C57BL/6 female mice. Conditions: EAE induced C57BL/6 mice, pellets supplemented with daily dose of 1.8 mg per mouse, oral, vs control group on standard pellets (FIG. 1).

We go through 3 compounds from patent US9849141B2, “Use of spironolactone-based composition that exhibits an inhibitory action on T-lymphocyte activation which is useful for preventing and/or treating multiple sclerosis” (PONTIFICIA UNIVERSIDAD CATOLICA DE CHILE, priority 2010, dated 2017).

For `C[C@]12CCC(=O)C=C1CC[C@@H]1[C@@H]2[C@@H](O)C[C@]2(C=O)[C@@H](C(=O)CO)CC[C@@H]12` [aldosterone], the “induction of T helper 17 (Th17) phenotype in CD4+ T-cells by stimulated dendritic cells” value in experiment [1] (dendritic cells stimulated with aldosterone) is reported as “induce the T helper 17 (Th17) phenotype in CD4+ T-cells”. Besides, the “effect on disease in EAE mice” value in experiment [2] is given as “showed a deterioration in their disease”.
Turning to `COC(=O)[C@@H]1CC2=CC(=O)CC[C@]2(C)[C@@]23O[C@@H]2C[C@@]2(C)[C@@H](CC[C@@]24CCC(=O)O4)[C@H]13` [epleronone], the “suppression of activator effects of aldosterone in the function of dendritic cells” value in experiment [1] is “could be suppressed”. In addition, the “activation of T-lymphocytes (IL-2 secretion, ELISA)” value in experiment [3] is “no such inhibiting effect on the activation of T-lymphocytes is observed”.
For the compound `CC(=O)S[C@@H]1CC2=CC(=O)CC[C@]2(C)[C@H]2CC[C@@]3(C)[C@@H](CC[C@@]34CCC(=O)O4)[C@H]12` [spironolactone], the “suppression of activator effects of aldosterone in the function of dendritic cells” value in experiment [1] was “could be suppressed”. Also, the “secretion of IL-2 (ELISA)” value in experiment [4] is given as “same inhibiting effect on the secretion of IL-2”. For the same compound, the “deposition of immune complexes in the kidney” value in experiment [5] was “did not observe a decrease in the deposition of immune complexes in the kidney”. In experiment [6], the “immune synapsis (polarization of the Golgi apparatus of the T-lymphocyte towards the antigen-presenting cell)” value is “immune synapsis is not produced”. In addition, the “effect on disease in EAE mice” value in experiment [2] is listed as “only spironolactone had protecting effects”. In addition, the “activation of T-lymphocytes (IL-2 secretion, ELISA)” value in experiment [3] is “inhibits the activation of T-lymphocytes”. Besides, the “clinical score associated with the disease” value in experiment [7] is on record as “significantly reduces the clinical score”.
